Consider 5 compounds from patent US20220274954A1, “SUBSTITUTED N-PHENYL-N-AMINOUARCILS AND SALTS THEREOF AND USE THEREOF AS HERBICIDAL AGENTS” (Bayer Aktiengesellschaft, priority 2019, published 2022).

Holding throughout (assay type): in vivo
The test system of series [1] is Abutilon theophrasti. The series can be described thus: Post-emergence herbicidal action. As to conditions: for pest or weed control at 5 g/ha / pest or weed control at 20 g/ha: Abutilon theophrasti, 504 h, read-out: Abutilon theophrasti (efficacy in %). Here is the method:
(§1) Seeds of monocotyledonous and dicotyledonous weeds and crop plants were placed in sandy loam in plastic or wood-fiber pots, covered with soil and cultivated in a greenhouse under controlled growth conditions. 2 to 3 weeks after sowing, the test plants were treated at the one-leaf stage. The compounds of the invention, formulated in the form of wettable powders (WP) or as emulsion concentrates (EC), were then sprayed onto the green parts of the plants as aqueous suspension or emulsion with addition of 0.5% additive at a water application rate of […] (converted). After the test plants had been kept in the greenhouse under optimum growth conditions for about 3 weeks, the activity of the preparations was rated visually in comparison to untreated controls. For example, 100% activity=the plants have died, 0% activity=like control plants. Tables A1 to A14 below show the effects of selected compounds of the general formula (I) according to Tables I.1 to I.34 on various harmful plants and at an application rate corresponding to 20 g/ha and less, which were obtained by the experimental procedure mentioned above.

In series [2] the test system is Veronica persica. As to the kind of experiment: Post-emergence herbicidal action. The note with it: for pest or weed control at 5 g/ha / pest or weed control at 20 g/ha: Veronica persica, 504 h, read-out: Veronica persica (efficacy in %). Here is the method:
as §1

For series [3], the system named is Viola tricolor. As to the kind of experiment: Post-emergence herbicidal action. The note with it: for pest or weed control at 5 g/ha / pest or weed control at 20 g/ha: Viola tricolor, 504 h, read-out: Viola tricolor (efficacy in %). Here is the method: as §1
In series [4] the test system is Alopecurus myosuroides. As to the kind of experiment: Post-emergence herbicidal action. Here is the method: as §1
For series [5], the system named is Echinochloa crus-galli. As to the kind of experiment: Post-emergence herbicidal action. The note with it: for pest or weed control at 5 g/ha / pest or weed control at 20 g/ha: Echinochloa crus-galli, 504 h, read-out: Echinochloa crus-galli (efficacy in %). Here is the method:
as §1

Series [6] has as its system Avena fatua. As to the kind of experiment: Post-emergence herbicidal action. The note with it: application rate 20 g/ha. The method, then:
as §1

The subject of series [7] is Matricaria inodora. The series can be described thus: Post-emergence herbicidal action. As to conditions: for pest or weed control at 5 g/ha / pest or weed control at 20 g/ha: Tripleurospermum inodorum, 504 h, read-out: Matricaria inodora (efficacy in %). Here is the method:
as §1

In series [8] the test system is Amaranthus retroflexus. The series can be described thus: Post-emergence herbicidal action. The note with it: for pest or weed control at 5 g/ha / pest or weed control at 20 g/ha: Amaranthus retroflexus, 504 h, read-out: Amaranthus retroflexus (efficacy in %). Here is the method:
as §1

The test system of series [9] is Pharbitis purpurea. As to the kind of experiment: Post-emergence herbicidal action. As to conditions: for pest or weed control at 5 g/ha / pest or weed control at 20 g/ha: Ipomoea purpurea, 504 h, read-out: Pharbitis purpurea (efficacy in %). Here is the method: as §1
Series [10] relates to Oryza sativa. The series can be described thus: Post-emergence crop plant compatibility. Here is the method:
as §1, with “plants.” for “plants. Tables A1 to A14 below show the effects of selected compounds of the general formula (I) according to Tables I.1 to I.34 on various harmful plants and at an application rate corresponding to 20 g/ha and less, which were obtained by the experimental procedure mentioned above.”
(§2) Here, the observed effects on selected crop plants are stated in comparison to the untreated controls (values in %).

Series [11] has as its system Digitaria sanguinalis. As to the kind of experiment: Post-emergence herbicidal action. The note with it: 504 h, read-out: Digitaria sanguinalis (efficacy in %); for pest or weed control at 20 g/ha: application rate 20 g/ha. The method, then: as §1
Series [12] deals with Polygonum convolvulus. The series can be described thus: Post-emergence herbicidal action. As to conditions: Fallopia convolvulus, 504 h, read-out: Polygonum convolvulus (efficacy in %); for pest or weed control at 20 g/ha: application rate 20 g/ha. The method, then: as §1
Series [13] has as its system Setaria viridis. As to the kind of experiment: Post-emergence herbicidal action. As to conditions: 504 h, read-out: Setaria viridis (efficacy in %); for pest or weed control at 5 g/ha: application rate 5 g/ha; for pest or weed control at 20 g/ha: application rate 20 g/ha. Here is the method: as §1
The test system of series [14] is Zea mays. The series can be described thus: Post-emergence crop plant compatibility. The note with it: application rate 5 g/ha. Here is the method:
as §1, with “plants.” for “plants. Tables A1 to A14 below show the effects of selected compounds of the general formula (I) according to Tables I.1 to I.34 on various harmful plants and at an application rate corresponding to 20 g/ha and less, which were obtained by the experimental procedure mentioned above.”
as §2

The test system of series [15] is Triticum aestivum. The series can be described thus: Post-emergence crop plant compatibility. Here is the method: as §1, with “plants.” for “plants. Tables A1 to A14 below show the effects of selected compounds of the general formula (I) according to Tables I.1 to I.34 on various harmful plants and at an application rate corresponding to 20 g/ha and less, which were obtained by the experimental procedure mentioned above.”
as §2

With `COCCOCCOC(=O)COc1ncc(F)cc1Sc1cc(-n2c(=O)cc(C(F)(F)F)n(N)c2=O)c(F)cc1Cl` [I.31-23, 2-(2-Methoxyethoxy)ethyl {[3-({5-[3-amino-2,6-dioxo-4-(trifluoromethyl)-3,6-dihydropyrimidin-1(2H)-yl]-2-chloro-4-fluorophenyl}sulfanyl)-5-fluoropyridin-2-yl]oxy}acetate], the pest or weed control at 5 g/ha was 100% in [1] (application rate 5 g/ha); 100% in series [2] (application rate 5 g/ha); 100% in [3] (application rate 5 g/ha); 80% in [5] (application rate 5 g/ha); 100% in [7] (application rate 5 g/ha); 100% in series [8] (application rate 5 g/ha). In [9] (application rate 5 g/ha), the pest or weed control at 5 g/ha came out at 100%. Further, the pest or weed control at 20 g/ha in series [1] (application rate 20 g/ha), in series [2] (application rate 20 g/ha), in [3] (application rate 20 g/ha), in [5] (application rate 20 g/ha), in series [7] (application rate 20 g/ha) and in [8] (application rate 20 g/ha) was 100% each time. Also, the pest or weed control at 20 g/ha in [9] (application rate 20 g/ha) amounted to 100%. In series [4] (application rate 20 g/ha), the “Alopecurus myosuroides (efficacy in %)” value is 100%. Also, the “Avena fatua (efficacy in %)” value in series [6] is 80%. Moreover, the “Oryza sativa (efficacy in %)” value in [10] (application rate 5 g/ha) stood at 20%.
Consider `CCCCCOC(=O)COc1ncccc1Sc1cc(-n2c(=O)cc(C(F)(F)F)n(N)c2=O)c(F)cc1Cl` [I.1-448, n-Pentyl {[3-({5-[3-amino-2,6-dioxo-4-(trifluoromethyl)-3,6-dihydropyrimidin-1(2H)-yl]-2-chloro-4-fluorophenyl}sulfanyl)pyridin-2-yl]oxy}acetate], for which the pest or weed control at 5 g/ha in [1] (application rate 5 g/ha) worked out at 80%; in series [2] (application rate 5 g/ha), 80%; in [3] (application rate 5 g/ha), 100%; in [13], 80%; in series [8] (application rate 5 g/ha) it was 100%. Also, the pest or weed control at 20 g/ha came to 80% in [1] (application rate 20 g/ha); 100% in [11]; 100% in series [12]; 80% in series [2] (application rate 20 g/ha); 100% in [3] (application rate 20 g/ha); 100% in series [13]. Moreover, the pest or weed control at 20 g/ha in series [8] (application rate 20 g/ha) and in series [9] (application rate 20 g/ha) was 100% in each case. Further, the “Zea mays (efficacy in %)” value in series [14] is recorded as 20%. Also, the “Triticum aestivum (efficacy in %)” value came out at 0% in series [15] (application rate 1.25 g/ha) and 10% in [15] (application rate 5 g/ha). The “Oryza sativa (efficacy in %)” value in series [10] (application rate 5 g/ha) is reported as 0%.
`CCCCOC(=O)COc1ncccc1Sc1cc(-n2c(=O)cc(C(F)(F)F)n(N)c2=O)c(F)cc1Cl` [I.1-447, n-Butyl {[3-({5-[3-amino-2,6-dioxo-4-(trifluoromethyl)-3,6-dihydropyrimidin-1(2H)-yl]-2-chloro-4-fluorophenyl}sulfanyl)pyridin-2-yl]oxy}acetate]: the pest or weed control at 5 g/ha in [1] (application rate 5 g/ha), in series [11] (application rate 5 g/ha), in [12] (application rate 5 g/ha), in series [2] (application rate 5 g/ha), in series [3] (application rate 5 g/ha) and in [5] (application rate 5 g/ha) was 100% throughout. Further, the pest or weed control at 5 g/ha in series [13], in series [7] (application rate 5 g/ha), in series [8] (application rate 5 g/ha) and in [9] (application rate 5 g/ha) was 100% each time. The pest or weed control at 20 g/ha in series [1] (application rate 20 g/ha), in [11], in series [12], in series [2] (application rate 20 g/ha), in series [3] (application rate 20 g/ha) and in [5] (application rate 20 g/ha) was 100% in each case. Besides, the pest or weed control at 20 g/ha in series [13], in series [7] (application rate 20 g/ha), in series [8] (application rate 20 g/ha) and in series [9] (application rate 20 g/ha) was 100% throughout. Moreover, the “Alopecurus myosuroides (efficacy in %)” value in series [4] (application rate 5 g/ha) was determined as 80%; in [4] (application rate 20 g/ha) it was 90%. The “Triticum aestivum (efficacy in %)” value in series [15] (application rate 1.25 g/ha) is on record as 10%. Besides, the “Oryza sativa (efficacy in %)” value is 0% in series [10] (application rate 1.25 g/ha) and 10% in series [10] (application rate 5 g/ha).
For `Nn1c(C(F)(F)F)cc(=O)n(-c2cc(Sc3cccnc3OCC(=O)OC3COC3)c(Cl)cc2F)c1=O` [I.1-115], the “Abutilon theophrasti (efficacy in %)” value is recorded as 90% in [1] (application rate 5 g/ha) and 100% in series [1] (application rate 20 g/ha). Moreover, the “Veronica persica (efficacy in %)” value in [2] (application rate 5 g/ha) and in series [2] (application rate 20 g/ha) was 100% in each case. The “Viola tricolor (efficacy in %)” value in series [3] (application rate 5 g/ha) and in series [3] (application rate 20 g/ha) was 100% each time. For the same compound, the “Alopecurus myosuroides (efficacy in %)” value in series [4] (application rate 5 g/ha) amounted to 80%; in [4] (application rate 20 g/ha), 100%. Further, the “Echinochloa crus-galli (efficacy in %)” value in series [5] (application rate 5 g/ha) amounted to 90%; in series [5] (application rate 20 g/ha) it was 100%. Besides, the “Matricaria inodora (efficacy in %)” value in [7] (application rate 5 g/ha) and in series [7] (application rate 20 g/ha) was 100% throughout. The “Amaranthus retroflexus (efficacy in %)” value in [8] (application rate 5 g/ha) and in series [8] (application rate 20 g/ha) was 100% in each case. Moreover, the “Pharbitis purpurea (efficacy in %)” value in [9] (application rate 5 g/ha) and in series [9] (application rate 20 g/ha) was 100% in each case. For the same compound, in series [15] (application rate 1.25 g/ha), the “Triticum aestivum (efficacy in %)” value is 20%.
For the compound `CCOC(=O)COc1ncc(F)cc1Sc1cc(-n2c(=O)cc(C(F)(F)F)n(N)c2=O)c(F)cc1Cl` [I.31-442], the “Abutilon theophrasti (efficacy in %)” value in series [1] (application rate 5 g/ha) and in series [1] (application rate 20 g/ha) was 100% throughout. The “Veronica persica (efficacy in %)” value in series [2] (application rate 5 g/ha) and in [2] (application rate 20 g/ha) was 100% each time. For the same compound, the “Viola tricolor (efficacy in %)” value in series [3] (application rate 5 g/ha) and in series [3] (application rate 20 g/ha) was 100% throughout. Further, the “Alopecurus myosuroides (efficacy in %)” value in series [4] (application rate 5 g/ha) is reported as 80%; in series [4] (application rate 20 g/ha), 90%. Besides, the “Echinochloa crus-galli (efficacy in %)” value in series [5] (application rate 5 g/ha) and in series [5] (application rate 20 g/ha) was 90% each time. The “Matricaria inodora (efficacy in %)” value in series [7] (application rate 20 g/ha) came out at 100%. In addition, the “Amaranthus retroflexus (efficacy in %)” value in series [8] (application rate 5 g/ha) and in series [8] (application rate 20 g/ha) was 100% in each case. The entries for the “Pharbitis purpurea (efficacy in %)” value in series [9] (application rate 5 g/ha) and in series [9] (application rate 20 g/ha) were 80% and 100%, respectively. Further, the “Triticum aestivum (efficacy in %)” value in series [15] (application rate 1.25 g/ha) was 10%; in [15] (application rate 5 g/ha), 20%. In addition, the entries for the “Oryza sativa (efficacy in %)” value in series [10] (application rate 1.25 g/ha) and in [10] (application rate 5 g/ha) were 0% and 10%, respectively.
